In ChEMBL document CHEMBL5678807, “A selective jumonji H3K27 demethylase inhibitor modulates the proinflammatory macrophage response” (Nature, 2012):

Legend:
[1] = test system: Macrophage; test: Antiinflammatory activity in human primary macrophages assessed as effect on LPS-induced TNFSF14 gene expression at 30 uM measured after 2 hrs by RT-PCR array (reference value: 5963 a.u.); format: functional
[2] = test system: Macrophage; test: Antiinflammatory activity in human primary macrophages assessed as effect on LPS-induced IL1F8 gene expression at 30 uM measured after 2 hrs by RT-PCR array (reference value: 1429 a.u.); format: functional
[3] = test system: Macrophage; test: Antiinflammatory activity in human primary macrophages assessed as effect on LPS-induced IFNG gene expression at 30 uM measured after 2 hrs by RT-PCR array (reference value: 240 a.u.); format: functional
[4] = test system: Macrophage; test: Antiinflammatory activity in human primary macrophages assessed as effect on LPS-induced CD70 gene expression at 30 uM measured after 2 hrs by RT-PCR array (reference value: 2415 a.u.); format: functional
[5] = test system: Macrophage; test: Antiinflammatory activity in human primary macrophages assessed as effect on LPS-induced TNFSF4 gene expression at 30 uM measured after 2 hrs by RT-PCR array (reference value: 880 a.u.); format: functional
[6] = test system: Macrophage; test: Antiinflammatory activity in human primary macrophages assessed as effect on LPS-induced BMP2 gene expression at 30 uM measured after 2 hrs by RT-PCR array (reference value: 331 a.u.); format: functional
[7] = test system: Macrophage; test: Antiinflammatory activity in human primary macrophages assessed as effect on LPS-induced IFNA4 gene expression at 30 uM measured after 2 hrs by RT-PCR array (reference value: 28 a.u.); format: functional
[8] = test system: Macrophage; test: Antiinflammatory activity in human primary macrophages assessed as effect on LPS-induced IL10 gene expression at 30 uM measured after 2 hrs by RT-PCR array (reference value: 47621 a.u.); format: functional
[9] = test system: Macrophage; test: Antiinflammatory activity in human primary macrophages assessed as effect on LPS-induced IL12B gene expression at 30 uM measured after 2 hrs by RT-PCR array (reference value: 17908 a.u.); format: functional
[10] = test system: Macrophage; test: Antiinflammatory activity in human primary macrophages assessed as effect on LPS-induced IL24 gene expression at 30 uM measured after 2 hrs by RT-PCR array (reference value: 12164 a.u.); format: functional
[11] = test system: Macrophage; test: Antiinflammatory activity in human primary macrophages assessed as effect on LPS-induced BMP1 gene expression at 30 uM measured after 2 hrs by RT-PCR array (reference value: 3930 a.u.); format: functional
[12] = test system: Macrophage; test: Antiinflammatory activity in human primary macrophages assessed as effect on LPS-induced IL16 gene expression at 30 uM measured after 2 hrs by RT-PCR array (reference value: 8635 a.u.); format: functional
[13] = test system: Macrophage; test: Antiinflammatory activity in human primary macrophages assessed as effect on LPS-induced TNFSF12 gene expression at 30 uM measured after 2 hrs by RT-PCR array (reference value: 12514 a.u.); format: functional
[14] = test system: Macrophage; test: Antiinflammatory activity in human primary macrophages assessed as effect on LPS-induced FAM3B gene expression at 30 uM measured after 2 hrs by RT-PCR array (reference value: 996 a.u.); format: functional
[15] = test system: Macrophage; test: Antiinflammatory activity in human primary macrophages assessed as effect on LPS-induced IL17C gene expression at 30 uM measured after 2 hrs by RT-PCR array (reference value: 157 a.u.); format: functional
[16] = test system: Macrophage; test: Antiinflammatory activity in human primary macrophages assessed as effect on LPS-induced IL1B gene expression at 30 uM measured after 2 hrs by RT-PCR array (reference value: 15266918 a.u.); format: functional
[17] = test system: Macrophage; test: Antiinflammatory activity in human primary macrophages assessed as effect on LPS-induced CSF1 gene expression at 30 uM measured after 2 hrs by RT-PCR array (reference value: 287895 a.u.); format: functional
[18] = test system: Macrophage; test: Antiinflammatory activity in human primary macrophages assessed as effect on LPS-induced BMP8B gene expression at 30 uM measured after 2 hrs by RT-PCR array (reference value: 1117 a.u.); format: functional
[19] = test system: Macrophage; test: Antiinflammatory activity in human primary macrophages assessed as effect on LPS-induced TGFB1 gene expression at 30 uM measured after 2 hrs by RT-PCR array (reference value: 72816 a.u.); format: functional
[20] = test system: Macrophage; test: Antiinflammatory activity in human primary macrophages assessed as effect on LPS-induced IFNB1 gene expression at 30 uM measured after 2 hrs by RT-PCR array (reference value: 1415030 a.u.); format: functional
[21] = test system: Macrophage; test: Antiinflammatory activity in human primary macrophages assessed as effect on LPS-induced IFNK gene expression at 30 uM measured after 2 hrs by RT-PCR array (reference value: 724 a.u.); format: functional
[22] = biological target: Histone deacetylase 8 (Homo sapiens, UniProt Q9BY41); test: Inhibition of human HDAC8 by FLINT assay
[23] = biological target: Sodium-dependent serotonin transporter (Homo sapiens, UniProt P31645); test: Binding affinity to human SERT by SPA
[24] = biological target: D(2) dopamine receptor (Homo sapiens, UniProt P14416); test: Antagonist activity at human dopamine 2 receptor by SPA; format: functional
[25] = Drug uptake in human primary macrophage lysates at 30 uM measured after 1 hr by RP LC-MS/MS analysis; format: ADME, subcellular
[26] = biological target: T1, 5-hydroxytryptamine receptor 1B (Homo sapiens, UniProt P28222); test: Antagonist activity at human 5-HT1B by SPA; format: functional
[27] = biological target: Vasopressin V1a receptor (Homo sapiens, UniProt P37288); test: Antagonist activity at human vasopressin V1a by intracellular Ca luminescence assay; format: functional, cell-based
[28] = Agonist activity at human 5-HT3 by intracellular Ca fluorescence assay; format: cell-based
[29] = biological target: T1, 5-hydroxytryptamine receptor 1B; test: Agonist activity at human 5-HT1B by SPA; format: functional
[30] = biological target: Histone deacetylase 2 (Homo sapiens, UniProt Q92769); test: Inhibition of human HDAC2 by FLINT assay
[31] = biological target: Histone deacetylase 4 (Homo sapiens, UniProt P56524); test: Inhibition of human HDAC4 by FLINT assay
[32] = biological target: Amine oxidase [flavin-containing] B (Homo sapiens, UniProt P27338); test: Inhibition of human MAOB by FLINT assay
[33] = biological target: Lysine-specific histone demethylase 1A (Homo sapiens, UniProt O60341); test: Inhibition of human LSD-1 by luminescence assay
[34] = biological target: Histamine H1 receptor (Homo sapiens, UniProt P35367); test: Antagonist activity at human HRH1 by intracellular Ca luminescence assay; format: functional, cell-based
[35] = biological target: Mu-type opioid receptor (Homo sapiens, UniProt P35372); test: Agonist activity at human OPRM-1 by SPA; format: functional
Sequence of Mu-type opioid receptor (P35372 whole entry): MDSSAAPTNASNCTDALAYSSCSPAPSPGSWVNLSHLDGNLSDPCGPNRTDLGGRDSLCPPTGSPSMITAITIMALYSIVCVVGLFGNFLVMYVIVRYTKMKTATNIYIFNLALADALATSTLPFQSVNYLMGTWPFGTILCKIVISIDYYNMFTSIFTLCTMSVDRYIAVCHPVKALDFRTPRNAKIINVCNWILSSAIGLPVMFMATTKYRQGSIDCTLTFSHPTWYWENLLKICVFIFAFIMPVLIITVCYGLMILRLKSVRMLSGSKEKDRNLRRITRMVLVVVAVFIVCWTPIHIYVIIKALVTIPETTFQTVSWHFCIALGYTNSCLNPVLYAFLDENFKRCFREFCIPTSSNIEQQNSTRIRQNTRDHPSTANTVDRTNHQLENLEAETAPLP

T1 sequence (P28222 whole entry): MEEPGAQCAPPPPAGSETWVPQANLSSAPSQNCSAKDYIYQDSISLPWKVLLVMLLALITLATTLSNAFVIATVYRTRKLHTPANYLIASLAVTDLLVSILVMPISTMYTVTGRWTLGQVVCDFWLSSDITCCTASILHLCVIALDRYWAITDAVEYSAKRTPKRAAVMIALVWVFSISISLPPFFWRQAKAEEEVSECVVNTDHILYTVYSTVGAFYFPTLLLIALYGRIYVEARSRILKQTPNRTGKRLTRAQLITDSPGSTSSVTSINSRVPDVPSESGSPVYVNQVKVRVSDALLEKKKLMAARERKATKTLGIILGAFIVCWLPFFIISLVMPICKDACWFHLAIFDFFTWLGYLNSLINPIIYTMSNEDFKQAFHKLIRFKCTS
Sequence of D(2) dopamine receptor (P14416 whole entry): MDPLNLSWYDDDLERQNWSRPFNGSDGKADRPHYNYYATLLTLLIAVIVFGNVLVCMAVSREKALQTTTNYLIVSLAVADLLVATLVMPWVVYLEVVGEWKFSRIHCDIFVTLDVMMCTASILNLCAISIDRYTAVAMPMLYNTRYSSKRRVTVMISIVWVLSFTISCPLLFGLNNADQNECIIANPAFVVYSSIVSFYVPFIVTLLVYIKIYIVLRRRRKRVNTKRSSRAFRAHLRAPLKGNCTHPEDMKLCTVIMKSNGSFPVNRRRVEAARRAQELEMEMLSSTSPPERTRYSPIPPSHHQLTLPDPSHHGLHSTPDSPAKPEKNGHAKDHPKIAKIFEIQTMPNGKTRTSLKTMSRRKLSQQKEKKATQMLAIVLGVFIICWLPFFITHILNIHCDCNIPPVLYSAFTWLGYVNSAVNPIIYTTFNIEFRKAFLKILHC
Sequence of Histone deacetylase 4 (P56524 whole entry): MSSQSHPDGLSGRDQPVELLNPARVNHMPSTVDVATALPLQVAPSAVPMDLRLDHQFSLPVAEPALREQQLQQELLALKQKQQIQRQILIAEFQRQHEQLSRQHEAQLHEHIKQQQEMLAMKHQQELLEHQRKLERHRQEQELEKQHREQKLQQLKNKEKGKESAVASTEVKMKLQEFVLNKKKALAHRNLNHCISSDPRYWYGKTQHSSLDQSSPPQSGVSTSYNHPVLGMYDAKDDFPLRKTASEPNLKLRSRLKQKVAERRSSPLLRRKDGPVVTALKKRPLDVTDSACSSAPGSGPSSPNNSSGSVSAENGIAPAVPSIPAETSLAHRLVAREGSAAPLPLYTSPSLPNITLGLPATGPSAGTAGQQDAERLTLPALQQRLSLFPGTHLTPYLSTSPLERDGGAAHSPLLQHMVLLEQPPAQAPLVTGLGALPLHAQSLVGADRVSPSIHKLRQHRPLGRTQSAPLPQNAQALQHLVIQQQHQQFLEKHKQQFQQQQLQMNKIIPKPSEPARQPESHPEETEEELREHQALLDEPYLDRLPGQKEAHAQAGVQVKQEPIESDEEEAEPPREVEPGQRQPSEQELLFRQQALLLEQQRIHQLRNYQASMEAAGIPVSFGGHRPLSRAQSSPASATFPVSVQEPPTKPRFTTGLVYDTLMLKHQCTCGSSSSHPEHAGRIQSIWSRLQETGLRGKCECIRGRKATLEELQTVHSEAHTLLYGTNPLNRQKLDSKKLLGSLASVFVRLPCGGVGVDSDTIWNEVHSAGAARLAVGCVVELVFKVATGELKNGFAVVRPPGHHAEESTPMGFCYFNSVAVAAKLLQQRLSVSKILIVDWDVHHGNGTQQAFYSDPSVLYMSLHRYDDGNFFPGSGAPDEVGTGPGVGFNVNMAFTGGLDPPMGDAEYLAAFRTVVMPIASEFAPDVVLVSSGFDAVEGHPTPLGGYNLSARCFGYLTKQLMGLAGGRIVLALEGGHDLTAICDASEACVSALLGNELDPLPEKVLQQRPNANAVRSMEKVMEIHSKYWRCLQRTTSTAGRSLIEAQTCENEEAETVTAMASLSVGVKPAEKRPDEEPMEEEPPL
Sequence of Histamine H1 receptor (P35367 whole entry): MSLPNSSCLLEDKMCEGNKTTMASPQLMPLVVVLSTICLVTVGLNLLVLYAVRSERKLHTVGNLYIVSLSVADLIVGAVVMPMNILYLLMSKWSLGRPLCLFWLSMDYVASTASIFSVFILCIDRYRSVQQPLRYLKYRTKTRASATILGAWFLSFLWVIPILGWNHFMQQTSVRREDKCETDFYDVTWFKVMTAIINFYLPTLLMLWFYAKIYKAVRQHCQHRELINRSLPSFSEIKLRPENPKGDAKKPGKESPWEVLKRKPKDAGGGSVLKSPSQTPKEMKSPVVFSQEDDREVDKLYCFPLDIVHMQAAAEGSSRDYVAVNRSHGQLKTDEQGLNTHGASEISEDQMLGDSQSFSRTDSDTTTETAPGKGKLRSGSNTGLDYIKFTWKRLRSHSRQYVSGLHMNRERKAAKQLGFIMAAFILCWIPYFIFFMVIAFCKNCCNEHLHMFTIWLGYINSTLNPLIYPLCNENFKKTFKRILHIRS
Sequence of Amine oxidase [flavin-containing] B (P27338 whole entry): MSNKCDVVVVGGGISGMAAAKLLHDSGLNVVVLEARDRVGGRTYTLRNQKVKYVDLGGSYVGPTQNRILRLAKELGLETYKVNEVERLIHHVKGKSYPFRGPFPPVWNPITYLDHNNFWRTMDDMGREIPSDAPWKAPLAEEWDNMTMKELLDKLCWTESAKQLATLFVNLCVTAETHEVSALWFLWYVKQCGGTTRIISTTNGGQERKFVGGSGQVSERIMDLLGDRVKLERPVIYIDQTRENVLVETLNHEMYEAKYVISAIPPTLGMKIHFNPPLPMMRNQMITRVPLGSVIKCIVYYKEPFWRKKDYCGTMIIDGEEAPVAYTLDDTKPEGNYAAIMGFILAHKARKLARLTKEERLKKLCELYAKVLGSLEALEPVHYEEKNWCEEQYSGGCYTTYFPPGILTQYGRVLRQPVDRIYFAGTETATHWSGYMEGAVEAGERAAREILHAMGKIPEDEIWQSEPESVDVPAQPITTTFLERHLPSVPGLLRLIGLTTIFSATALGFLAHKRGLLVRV
Sequence of Sodium-dependent serotonin transporter (P31645 whole entry): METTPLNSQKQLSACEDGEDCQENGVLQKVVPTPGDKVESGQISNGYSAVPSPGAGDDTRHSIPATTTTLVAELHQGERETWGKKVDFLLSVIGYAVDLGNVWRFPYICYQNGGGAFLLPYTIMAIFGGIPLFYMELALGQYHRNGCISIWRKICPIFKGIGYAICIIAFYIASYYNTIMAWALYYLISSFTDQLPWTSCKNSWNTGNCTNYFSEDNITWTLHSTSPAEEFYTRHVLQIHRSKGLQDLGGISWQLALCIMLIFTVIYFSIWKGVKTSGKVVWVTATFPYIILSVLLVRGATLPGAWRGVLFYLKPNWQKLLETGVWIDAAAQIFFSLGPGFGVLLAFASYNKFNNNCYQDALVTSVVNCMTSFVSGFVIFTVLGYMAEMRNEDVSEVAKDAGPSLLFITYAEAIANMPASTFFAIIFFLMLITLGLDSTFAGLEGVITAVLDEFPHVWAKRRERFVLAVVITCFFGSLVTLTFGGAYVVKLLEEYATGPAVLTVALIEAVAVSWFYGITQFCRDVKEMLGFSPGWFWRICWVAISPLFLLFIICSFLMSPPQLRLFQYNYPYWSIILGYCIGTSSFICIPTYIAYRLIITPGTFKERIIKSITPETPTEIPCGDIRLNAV
Sequence of Histone deacetylase 2 (Q92769 whole entry): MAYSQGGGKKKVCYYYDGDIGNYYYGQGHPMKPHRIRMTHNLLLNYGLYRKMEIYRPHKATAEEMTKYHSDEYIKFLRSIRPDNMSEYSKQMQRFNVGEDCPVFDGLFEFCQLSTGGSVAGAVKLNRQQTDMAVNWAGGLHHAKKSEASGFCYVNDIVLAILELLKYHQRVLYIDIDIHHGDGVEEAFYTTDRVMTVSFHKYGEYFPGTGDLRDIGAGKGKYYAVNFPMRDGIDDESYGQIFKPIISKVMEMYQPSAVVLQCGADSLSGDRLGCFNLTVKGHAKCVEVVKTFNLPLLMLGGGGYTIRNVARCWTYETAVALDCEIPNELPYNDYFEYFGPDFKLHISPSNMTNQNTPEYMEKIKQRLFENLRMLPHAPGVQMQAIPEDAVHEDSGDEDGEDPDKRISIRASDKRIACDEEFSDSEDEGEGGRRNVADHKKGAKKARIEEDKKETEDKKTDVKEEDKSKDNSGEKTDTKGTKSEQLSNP
Sequence of Histone deacetylase 8 (Q9BY41 whole entry): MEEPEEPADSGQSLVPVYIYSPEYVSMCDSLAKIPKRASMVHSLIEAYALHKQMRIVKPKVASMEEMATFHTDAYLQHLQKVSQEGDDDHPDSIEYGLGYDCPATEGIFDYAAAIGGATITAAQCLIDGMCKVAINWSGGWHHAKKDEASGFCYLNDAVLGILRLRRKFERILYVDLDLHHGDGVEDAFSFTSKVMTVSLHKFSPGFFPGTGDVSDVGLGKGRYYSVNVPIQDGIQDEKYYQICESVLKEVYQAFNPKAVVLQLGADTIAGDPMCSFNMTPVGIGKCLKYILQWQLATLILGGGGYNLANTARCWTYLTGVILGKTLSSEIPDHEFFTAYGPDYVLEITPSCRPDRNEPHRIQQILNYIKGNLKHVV

| SMILES | Activity [1] [a.u.] | Activity [2] [a.u.] | Activity [3] [a.u.] | Activity [4] [a.u.] | Activity [5] [a.u.] | Activity [6] [a.u.] | Activity [7] [a.u.] | Activity [8] [a.u.] | Activity [9] [a.u.] | Activity [10] [a.u.] | Activity [11] [a.u.] | Activity [12] [a.u.] | Activity [13] [a.u.] | Activity [14] [a.u.] | Activity [15] [a.u.] | Activity [16] [a.u.] | Activity [17] [a.u.] | Activity [18] [a.u.] | Activity [19] [a.u.] | Activity [20] [a.u.] | other results |
| --- | --- | --- | --- | --- | --- | --- | --- | --- | --- | --- | --- | --- | --- | --- | --- | --- | --- | --- | --- | --- | --- |
| CCOC(=O)CCNc1cc(N2CCc3ccccc3CC2)nc(-c2ccccn2)n1 | 9678 | 1157 | 298 | 334 | 1586 | 3 | 25 | 4765 | 3068 | 11754 | 2627 | 6284 | 8686 | 9 | 107 | 3032303 | 140386 | 820 | 50103 | 153760 | Activity [21]: 3510 a.u. |
| O=C(O)CCNc1cc(N2CCc3ccccc3CC2)nc(-c2ccccn2)n1 | – | – | – | – | – | – | – | – | – | – | – | – | – | – | – | – | – | – | – | – | XC50 [22]: > 300 µM; XC50 [23]: > 100 µM; XC50 [24]: > 100 µM; Drug uptake [25]: 1.6 µM; XC50 [26]: > 32 µM; XC50 [27]: > 50 µM; XC50 [28]: > 50 µM; XC50 [29]: > 32 µM; XC50 [30]: > 300 µM; XC50 [31]: > 300 µM; XC50 [32]: 25 µM; XC50 [33]: > 125 µM; XC50 [34]: > 40 µM; XC50 [35]: > 100 µM |
| O=C(O)CCNc1cc(N2CCc3ccccc3CC2)nc(-c2cccnc2)n1 | – | – | – | – | – | – | – | – | – | – | – | – | – | – | – | – | – | – | – | – | XC50 [22]: > 300 µM; XC50 [23]: > 100 µM; XC50 [24]: > 100 µM; Drug uptake [25]: 7.8 µM; XC50 [26]: > 32 µM; XC50 [27]: 4.9 µM; XC50 [28]: > 50 µM; XC50 [29]: > 32 µM; XC50 [30]: > 300 µM; XC50 [31]: > 300 µM; XC50 [32]: 25 µM; XC50 [33]: > 125 µM; XC50 [34]: > 40 µM; XC50 [35]: > 100 µM |
| CCOC(=O)CCNc1cc(N2CCc3ccccc3CC2)nc(-c2cccnc2)n1 | 5331 | 2282 | 60 | 1003 | 512 | 347 | 1 | 31748 | 17395 | 10100 | 2746 | 4600 | 10108 | 466 | 253 | 10300355 | 211785 | 1235 | 49233 | 1501879 | Activity [21]: 339 a.u. |
